Results published in article PMC10590419, “Structural and mechanistic insights into the inhibition of respiratory syncytial virus polymerase by a non-nucleoside inhibitor” (Communications Biology, 2023).
Read-outs that look alike come from different tables or passages of the source.

Biological target: recombinant RSV L+P (Human respiratory syncytial virus A, UniProt P28887)
Experiment: Primed single nucleotide incorporation (SNI) gel assay, recombinant RSV L+P
Format: biochemical, Human RSV (strain A2)
Description: RNA polymerase reaction samples consisted of 0.2 μM recombinant RSV L-P polymerase, 0.2 μM of an RNA template (Le11 or Tr14), and 400 μM of a short primer (sequences as indicated in the figures), mixed in a buffer containing 50 mM Tris pH 7.4, 2 mM dithiothreitol and 6 mM MgCl2. For the assay in Fig. 1d, reactions were started by adding 100 nM [α-^32P]GTP (3000 Ci/mmol) tracer and incubated at 30 °C for 10 min. […] Reactions were stopped by adding an equal volume of gel loading buffer containing 90% formamide, 50 mM EDTA, 0.05% Xylene Cyanol, and Bromophenol Blue. Samples were denatured at 95 °C for 5 min and run on a 22.5% polyacrylamide urea sequencing gel at 80 W. The gel was transferred onto a Whatman cellulose chromatography paper (Millipore Sigma) and dried on a gel dryer (Bio-Rad) for 1 h. The dried gel was exposed to a phosphor-screen, scanned on a Typhoon phosphorimager (GE Healthcare), and quantified using ImageQuant (GE Healthcare).

[1] = 5 µM, le-11, +1 site, replicates, 5 µM
[2] = 5 µM, le-11, +3 site, replicates, 5 µM
[3] = 5 µM, tr-14, +1 site, replicates, 5 µM
[4] = le-11, +1 site, 0.00390625 uM, replicates, 0.00390625 µM
[5] = le-11, +1 site, 0.0078125 uM, replicates, 0.0078125 µM
[6] = le-11, +1 site, 0.015625 uM, replicates, 0.015625 µM
[7] = le-11, +1 site, 0.03125 uM, replicates, 0.03125 µM
[8] = le-11, +1 site, 0.0625 uM, replicates, 0.0625 µM
[9] = le-11, +1 site, 0.125 uM, replicates, 0.125 µM
[10] = le-11, +1 site, 0.25 uM, replicates, 0.25 µM
[11] = le-11, +1 site, 0.5 uM, replicates, 0.5 µM

Sequence of recombinant RSV L+P (P28887 whole entry): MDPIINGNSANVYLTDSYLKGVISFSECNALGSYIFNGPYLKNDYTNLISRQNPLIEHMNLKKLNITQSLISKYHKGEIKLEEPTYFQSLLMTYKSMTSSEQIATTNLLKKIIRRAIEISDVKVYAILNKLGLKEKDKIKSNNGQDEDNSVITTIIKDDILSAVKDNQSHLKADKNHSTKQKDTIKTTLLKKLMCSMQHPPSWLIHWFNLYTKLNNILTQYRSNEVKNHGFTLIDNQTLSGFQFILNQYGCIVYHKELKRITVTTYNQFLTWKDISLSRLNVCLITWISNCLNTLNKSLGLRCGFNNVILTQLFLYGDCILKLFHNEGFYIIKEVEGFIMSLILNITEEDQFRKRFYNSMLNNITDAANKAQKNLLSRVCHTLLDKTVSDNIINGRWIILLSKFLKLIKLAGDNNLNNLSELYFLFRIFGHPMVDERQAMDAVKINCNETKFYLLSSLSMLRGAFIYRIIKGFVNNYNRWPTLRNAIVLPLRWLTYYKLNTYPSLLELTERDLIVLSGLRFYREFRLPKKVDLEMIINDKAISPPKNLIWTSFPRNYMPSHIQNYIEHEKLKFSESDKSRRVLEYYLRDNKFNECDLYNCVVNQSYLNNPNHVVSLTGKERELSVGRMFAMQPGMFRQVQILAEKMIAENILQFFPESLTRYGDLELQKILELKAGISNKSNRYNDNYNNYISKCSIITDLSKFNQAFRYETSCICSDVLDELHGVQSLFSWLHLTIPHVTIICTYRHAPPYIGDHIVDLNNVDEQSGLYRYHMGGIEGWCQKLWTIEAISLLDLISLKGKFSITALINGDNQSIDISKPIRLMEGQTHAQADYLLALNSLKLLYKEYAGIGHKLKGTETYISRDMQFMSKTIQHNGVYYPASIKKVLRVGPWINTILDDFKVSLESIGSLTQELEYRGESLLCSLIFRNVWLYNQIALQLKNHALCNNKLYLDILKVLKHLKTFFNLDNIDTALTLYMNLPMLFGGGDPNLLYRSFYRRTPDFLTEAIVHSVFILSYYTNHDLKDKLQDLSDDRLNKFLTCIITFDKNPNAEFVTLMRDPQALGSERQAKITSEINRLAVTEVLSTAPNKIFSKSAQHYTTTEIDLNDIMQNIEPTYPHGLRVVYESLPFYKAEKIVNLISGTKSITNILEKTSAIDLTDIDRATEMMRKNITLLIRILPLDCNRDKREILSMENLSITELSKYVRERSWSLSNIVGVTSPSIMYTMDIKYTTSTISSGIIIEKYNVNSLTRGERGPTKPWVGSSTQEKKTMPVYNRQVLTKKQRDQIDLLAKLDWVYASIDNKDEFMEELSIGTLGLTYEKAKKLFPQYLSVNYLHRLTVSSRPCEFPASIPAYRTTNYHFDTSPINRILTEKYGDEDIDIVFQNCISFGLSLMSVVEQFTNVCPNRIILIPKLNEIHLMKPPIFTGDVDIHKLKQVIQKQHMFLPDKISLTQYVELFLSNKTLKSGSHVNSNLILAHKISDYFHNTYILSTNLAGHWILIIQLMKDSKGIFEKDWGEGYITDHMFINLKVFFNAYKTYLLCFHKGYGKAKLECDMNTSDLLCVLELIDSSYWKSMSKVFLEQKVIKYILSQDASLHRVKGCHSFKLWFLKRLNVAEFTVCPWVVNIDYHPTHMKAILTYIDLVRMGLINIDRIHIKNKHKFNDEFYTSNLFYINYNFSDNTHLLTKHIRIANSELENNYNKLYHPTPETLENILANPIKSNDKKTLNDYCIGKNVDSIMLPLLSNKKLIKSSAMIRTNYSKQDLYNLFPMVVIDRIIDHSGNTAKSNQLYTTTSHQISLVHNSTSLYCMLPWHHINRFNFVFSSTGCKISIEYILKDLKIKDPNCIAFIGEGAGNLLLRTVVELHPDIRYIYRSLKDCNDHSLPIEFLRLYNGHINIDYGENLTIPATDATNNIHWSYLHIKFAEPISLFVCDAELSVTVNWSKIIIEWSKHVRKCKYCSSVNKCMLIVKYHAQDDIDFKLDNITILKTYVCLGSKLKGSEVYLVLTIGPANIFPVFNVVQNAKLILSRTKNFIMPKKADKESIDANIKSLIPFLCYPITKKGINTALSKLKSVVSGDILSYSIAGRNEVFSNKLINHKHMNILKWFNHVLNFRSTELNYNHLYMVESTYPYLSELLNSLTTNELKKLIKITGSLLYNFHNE
Sequence of recombinant RSV L+P (P03421 whole entry, further chain): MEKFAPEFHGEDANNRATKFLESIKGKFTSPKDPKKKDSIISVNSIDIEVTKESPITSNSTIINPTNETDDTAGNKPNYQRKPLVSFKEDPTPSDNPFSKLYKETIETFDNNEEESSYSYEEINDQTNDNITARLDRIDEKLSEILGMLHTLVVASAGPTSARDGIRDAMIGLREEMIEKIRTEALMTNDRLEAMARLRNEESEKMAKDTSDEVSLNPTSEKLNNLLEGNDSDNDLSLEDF

Compound: COc1cc(C(=O)NC[C@](O)(c2cc(C(C)(C)O)c(F)c(-c3ccc(F)cc3)n2)C(F)(F)F)cc2cc(C)nnc12 [JNJ-8003]
- inhibition at 5 µM (5 µM, le-11, +1 site, N 2, read-out: % inhibition of SNI, AC>ACG, average): 88.8%
- inhibition at 5 µM (5 µM, le-11, +1 site, N 2, read-out: % inhibition of SNI, ACG>ACGC, average): 2.75%
- inhibition at 5 µM (5 µM, le-11, +1 site, N 2, read-out: % inhibition of SNI, ACGC>ACGCG, average): 94.8%
- inhibition at 5 µM (5 µM, le-11, +1 site, N 2, read-out: % inhibition of SNI, ACGCG>ACGCGA, average): 96.9%
- inhibition at 5 µM (5 µM, le-11, +1 site, N 2, read-out: % inhibition of SNI, ACGCGA>ACGCGAA, average): 85.3%
- % inhibition of SNI, AC>ACG [1]: 88.48%
- % inhibition of SNI, ACGC>ACGCG [1]: 96.78%
- % inhibition of SNI, ACGCG>ACGCGA [1]: 98.45%
- % inhibition of SNI, ACGCGA>ACGCGAA [1]: 88.02%
- inhibition at 5 µM (5 µM, le-11, +1 site, replicates, read-out: % inhibition of SNI, AC>ACG): 89%
- inhibition at 5 µM (5 µM, le-11, +1 site, replicates, read-out: % inhibition of SNI, ACGC>ACGCG): 92.7%
- inhibition at 5 µM (5 µM, le-11, +1 site, replicates, read-out: % inhibition of SNI, ACGCG>ACGCGA): 95.4%
- inhibition at 5 µM (5 µM, le-11, +1 site, replicates, read-out: % inhibition of SNI, ACGCGA>ACGCGAA): 82.6%
- inhibition at 5 µM (5 µM, le-11, +3 site, N 2, read-out: % inhibition of SNI, GC>GCG, average): 96.5%
- inhibition at 5 µM (5 µM, le-11, +3 site, N 2, read-out: % inhibition of SNI, GCG>GCGA, average): 74.8%
- inhibition at 5 µM (5 µM, le-11, +3 site, N 2, read-out: % inhibition of SNI, GCGA>GCGAA, average): 97.6%
- inhibition at 5 µM (5 µM, le-11, +3 site, N 2, read-out: % inhibition of SNI, GCGAA>GCGAAA, average): 93.8%
- % inhibition of SNI, GC>GCG [2]: 97.71%
- % inhibition of SNI, GCG>GCGA [2]: 79.85%
- % inhibition of SNI, GCGA>GCGAA [2]: 98.25%
- % inhibition of SNI, GCGAA>GCGAAA [2]: 91.04%
- inhibition at 5 µM (5 µM, le-11, +3 site, replicates, read-out: % inhibition of SNI, GC>GCG): 95.3%
- inhibition at 5 µM (5 µM, le-11, +3 site, replicates, read-out: % inhibition of SNI, GCG>GCGA): 69.8%
- inhibition at 5 µM (5 µM, le-11, +3 site, replicates, read-out: % inhibition of SNI, GCGA>GCGAA): 97%
- inhibition at 5 µM (5 µM, le-11, +3 site, replicates, read-out: % inhibition of SNI, GCGAA>GCGAAA): 96.5%
- inhibition at 5 µM (5 µM, tr-14, +1 site, N 2, read-out: % inhibition of SNI, AC>ACG, average): 88.2%
- inhibition at 5 µM (5 µM, tr-14, +1 site, N 2, read-out: % inhibition of SNI, ACG>ACGA, average): 8.03%
- inhibition at 5 µM (5 µM, tr-14, +1 site, N 2, read-out: % inhibition of SNI, ACGA>ACGAG, average): 95%
- inhibition at 5 µM (5 µM, tr-14, +1 site, N 2, read-out: % inhibition of SNI, ACGAG>ACGAGA, average): 88.8%
- inhibition at 5 µM (5 µM, tr-14, +1 site, N 2, read-out: % inhibition of SNI, ACGAGA>ACGAGAA, average): 90%
- % inhibition of SNI, AC>ACG [3]: 84.25%
- % inhibition of SNI, ACGA>ACGAG [3]: 93.02%
- % inhibition of SNI, ACGAG>ACGAGA [3]: 89.36%
- % inhibition of SNI, ACGAGA>ACGAGAA [3]: 89.66%
- inhibition at 5 µM (5 µM, tr-14, +1 site, replicates, read-out: % inhibition of SNI, AC>ACG): 92.2%
- inhibition at 5 µM (5 µM, tr-14, +1 site, replicates, read-out: % inhibition of SNI, ACGA>ACGAG): 96.9%
- inhibition at 5 µM (5 µM, tr-14, +1 site, replicates, read-out: % inhibition of SNI, ACGAG>ACGAGA): 88.2%
- inhibition at 5 µM (5 µM, tr-14, +1 site, replicates, read-out: % inhibition of SNI, ACGAGA>ACGAGAA): 90.3%
- SNI to the 3-mer primer from the +1 site (in words) (le and tr promoter RNA): did not inhibit
- pACG formation, % inhibition [4]: 21.7616%
- pACGCG formation, % inhibition [4]: 22.5312%
- inhibition at 0.00390625 µM (le-11, +1 site, 0.00390625 uM, replicates, read-out: pACG formation, % inhibition): 15.7%
- inhibition at 0.00390625 µM (le-11, +1 site, 0.00390625 uM, replicates, read-out: pACGC formation, % inhibition): 22.3%
- inhibition at 0.00390625 µM (le-11, +1 site, 0.00390625 uM, replicates, read-out: pACGCG formation, % inhibition): 29.7%
- pACG formation, % inhibition [5]: 22.0299%
- pACGCG formation, % inhibition [5]: 31.4378%
- inhibition at 0.0078125 µM (le-11, +1 site, 0.0078125 uM, replicates, read-out: pACG formation, % inhibition): 27.9%
- inhibition at 0.0078125 µM (le-11, +1 site, 0.0078125 uM, replicates, read-out: pACGC formation, % inhibition): 23.6%
- inhibition at 0.0078125 µM (le-11, +1 site, 0.0078125 uM, replicates, read-out: pACGCG formation, % inhibition): 35.9%
- pACG formation, % inhibition [6]: 38.1202%
- pACGCG formation, % inhibition [6]: 40.5036%
- inhibition at 0.015625 µM (le-11, +1 site, 0.015625 uM, replicates, read-out: pACG formation, % inhibition): 38.1%
- inhibition at 0.015625 µM (le-11, +1 site, 0.015625 uM, replicates, read-out: pACGC formation, % inhibition): 28%
- inhibition at 0.015625 µM (le-11, +1 site, 0.015625 uM, replicates, read-out: pACGCG formation, % inhibition): 35%
- pACG formation, % inhibition [7]: 56.5591%
- pACGCG formation, % inhibition [7]: 63.5179%
- inhibition at 0.03125 µM (le-11, +1 site, 0.03125 uM, replicates, read-out: pACG formation, % inhibition): 61.9%
- inhibition at 0.03125 µM (le-11, +1 site, 0.03125 uM, replicates, read-out: pACGC formation, % inhibition): 28.5%
- inhibition at 0.03125 µM (le-11, +1 site, 0.03125 uM, replicates, read-out: pACGCG formation, % inhibition): 63.6%
- pACG formation, % inhibition [8]: 90.7902%
- pACGCG formation, % inhibition [8]: 93.3045%
- inhibition at 0.0625 µM (le-11, +1 site, 0.0625 uM, replicates, read-out: pACG formation, % inhibition): 93.3%
- inhibition at 0.0625 µM (le-11, +1 site, 0.0625 uM, replicates, read-out: pACGC formation, % inhibition): 29.3%
- inhibition at 0.0625 µM (le-11, +1 site, 0.0625 uM, replicates, read-out: pACGCG formation, % inhibition): 92.5%
- pACG formation, % inhibition [9]: 92.6859%
- pACGCG formation, % inhibition [9]: 94.8621%
- inhibition at 0.125 µM (le-11, +1 site, 0.125 uM, replicates, read-out: pACG formation, % inhibition): 94.3%
- inhibition at 0.125 µM (le-11, +1 site, 0.125 uM, replicates, read-out: pACGC formation, % inhibition): 30.8%
- inhibition at 0.125 µM (le-11, +1 site, 0.125 uM, replicates, read-out: pACGCG formation, % inhibition): 94.8%
- pACG formation, % inhibition [10]: 91.0112%
- pACGCG formation, % inhibition [10]: 93.3897%
- inhibition at 0.25 µM (le-11, +1 site, 0.25 uM, replicates, read-out: pACG formation, % inhibition): 94.2%
- inhibition at 0.25 µM (le-11, +1 site, 0.25 uM, replicates, read-out: pACGC formation, % inhibition): 17.7%
- inhibition at 0.25 µM (le-11, +1 site, 0.25 uM, replicates, read-out: pACGCG formation, % inhibition): 95.2%
- pACG formation, % inhibition [11]: 89.7151%
- pACGCG formation, % inhibition [11]: 94.5159%
